Measurements reported in ChEMBL document CHEMBL1201862, “PubChem BioAssay data set” (2004).
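Interpolation was linear, between the two tested concentrations surrounding the appropriate level; five concentrations were tested over 48 hours in 96-well plates. Abbreviation: GI50, concentration required for 50% inhibition of growth.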 Active and inactive are the calls of the source. No stated cut-off is given here; in the data, active = GI50 up to about 1.1 µM and inactive = higher.

Experiments:
Assay in all cases: NCI tumour cell line growth inhibition, 48 h
UACC-257 = test system: UACC-257
NCI-H23 = test system: NCI-H23
DU-145 = test system: DU-145
NCI-H522 = test system: NCI-H522
ACHN = test system: ACHN
SF-295 = test system: SF-295
786-0 = test system: 786-0
Hs-578T = test system: Hs-578T
SN12C = test system: SN12C
MDA-MB-231 = test system: MDA-MB-231
A498 = test system: A498
HCC 2998 = test system: HCC 2998
MOLT-4 = test system: MOLT-4
MDA-N = test system: MDA-N
OVCAR-5 = test system: OVCAR-5
HCT-116 = test system: HCT-116
A549 = test system: A549
Malme-3M = test system: Malme-3M
SK-MEL-5 = test system: SK-MEL-5
OVCAR-4 = test system: OVCAR-4
IGROV-1 = test system: IGROV-1
CCRF-CEM = test system: CCRF-CEM
U-251 = test system: U-251
SNB-75 = test system: SNB-75
NCI/ADR-RES = test system: NCI/ADR-RES
PC-3 = test system: PC-3
BT-549 = test system: BT-549
UACC-62 = test system: UACC-62
EKVX = test system: EKVX
MCF7 = test system: MCF7
RPMI-8226 = test system: RPMI-8226
SK-MEL-28 = test system: SK-MEL-28
TK-10 = test system: TK-10
SNB-19 = test system: SNB-19
SF-539 = test system: SF-539
MDA-MB-435 = test system: MDA-MB-435
RXF 393 = test system: RXF 393
NCI-H460 = test system: NCI-H460
M14 = test system: M14
UO-31 = test system: UO-31
CAKI-1 = test system: CAKI-1
HOP-62 = test system: HOP-62
K562 = test system: K562
SF-268 = test system: SF-268
SR = test system: SR
HOP-92 = test system: HOP-92
OVCAR-3 = test system: OVCAR-3
SK-MEL-2 = test system: SK-MEL-2
COLO 205 = test system: COLO 205
HT-29 = test system: HT-29
LOX IMVI = test system: LOX IMVI
NCI-H226 = test system: NCI-H226
KM12 = test system: KM12
SW-620 = test system: SW-620
HCT-15 = test system: HCT-15
OVCAR-8 = test system: OVCAR-8
HL-60 = test system: HL-60
SK-OV-3 = test system: SK-OV-3

Measured: GI50

COC(=O)CCC1(O)C=CC(=O)C=C1
inactive: UACC-257 17.1 µM | NCI-H23 33.7 µM | DU-145 36.8 µM | NCI-H522 14.1 µM | ACHN 51.6 µM | SF-295 > 100 µM | 786-0 36.4 µM | Hs-578T 29.4 µM | SN12C 57.1 µM | MDA-MB-231 > 100 µM | A498 > 100 µM | HCC 2998 63.5 µM | MOLT-4 37.7 µM | MDA-N 63.4 µM | OVCAR-5 > 100 µM | HCT-116 34 µM | A549 > 100 µM | Malme-3M 17 µM | SK-MEL-5 31.9 µM | OVCAR-4 65.8 µM | IGROV-1 20.6 µM | CCRF-CEM 43.4 µM | U-251 21.1 µM | SNB-75 > 100 µM | NCI/ADR-RES 31.3 µM | PC-3 > 100 µM | BT-549 58.5 µM | UACC-62 20.3 µM | EKVX > 100 µM | MCF7 38.3 µM | RPMI-8226 31.7 µM | SK-MEL-28 23.2 µM | TK-10 36.7 µM | SNB-19 37.8 µM | SF-539 25.8 µM | MDA-MB-435 > 100 µM | RXF 393 23.6 µM | NCI-H460 28.2 µM | M14 40.8 µM | UO-31 55 µM | CAKI-1 16.6 µM | HOP-62 > 100 µM | K562 38.9 µM | SF-268 29.6 µM | SR 25 µM | HOP-92 65.6 µM | OVCAR-3 24.4 µM | SK-MEL-2 > 100 µM | COLO 205 17.6 µM | HT-29 36.7 µM | LOX IMVI 30.3 µM | NCI-H226 > 100 µM | KM12 > 100 µM | SW-620 29.8 µM | OVCAR-8 31.7 µM
18.4 µM: HCT-15

CC(=O)N(C(C)=O)n1c(Cc2ccc(Cl)cc2)n[nH]c1=O
> 100 µM: HCT-15
inactive: UACC-257 > 100 µM | NCI-H23 > 100 µM | DU-145 > 100 µM | NCI-H522 > 100 µM | ACHN > 100 µM | SF-295 > 64.4 µM | 786-0 > 100 µM | Hs-578T > 100 µM | SN12C > 100 µM | MDA-MB-231 > 100 µM | A498 > 100 µM | HCC 2998 > 100 µM | MOLT-4 > 100 µM | MDA-N > 100 µM | OVCAR-5 > 100 µM | HCT-116 > 100 µM | A549 > 100 µM | Malme-3M > 52.7 µM | SK-MEL-5 > 100 µM | OVCAR-4 > 100 µM | IGROV-1 > 100 µM | CCRF-CEM > 100 µM | U-251 > 100 µM | SNB-75 > 81.8 µM | NCI/ADR-RES > 100 µM | PC-3 > 100 µM | BT-549 > 100 µM | UACC-62 > 100 µM | EKVX > 100 µM | MCF7 > 100 µM | RPMI-8226 > 100 µM | SK-MEL-28 > 100 µM | HL-60 > 100 µM | TK-10 > 100 µM | SNB-19 > 100 µM | SF-539 > 100 µM | MDA-MB-435 > 100 µM | RXF 393 28.5 µM | NCI-H460 > 100 µM | M14 > 100 µM | UO-31 > 100 µM | CAKI-1 > 100 µM | HOP-62 > 55.8 µM | K562 > 100 µM | SF-268 > 100 µM | SR > 100 µM | HOP-92 > 100 µM | SK-OV-3 > 100 µM | OVCAR-3 > 100 µM | SK-MEL-2 > 100 µM | COLO 205 > 100 µM | HT-29 > 100 µM | LOX IMVI > 88.5 µM | NCI-H226 > 100 µM | KM12 > 100 µM | SW-620 > 100 µM | OVCAR-8 > 100 µM
